The text below walks through data of article PMC11967795 (Advanced Science, 2025).

What is called stoichiometry N is a count of units in the complex or per binding partner.

The target in experiment [1] is T1, RhuA (rRhuA; R. anatipestifer haemin uptake protein A) (Riemerella anatipestifer, UniProt J9QZE1).
T1 construct: gene B739_1417; recombinant
T1 sequence (J9QZE1 17-210): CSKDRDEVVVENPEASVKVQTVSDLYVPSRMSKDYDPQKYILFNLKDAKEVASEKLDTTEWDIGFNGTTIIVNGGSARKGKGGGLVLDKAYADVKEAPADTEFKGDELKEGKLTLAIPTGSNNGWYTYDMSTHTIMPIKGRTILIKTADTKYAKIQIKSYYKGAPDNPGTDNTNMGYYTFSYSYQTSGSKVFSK
The experiment is described as follows: SDS-PAGE and ECL detection of bound haemin. The settings on record: positive control. The format is binding.

For experiment [2], the target named is recombinant RhuH protein (R. anatipestifer haem uptake protein haemophore), mature, without signal peptide (Riemerella anatipestifer CH-1). The experiment is described as follows: SEC; purified recombinant apo RhuH on size exclusion chromatography; elution compared with the 35 kDa of the sequence.

Regarding `C=CC1=C(C)C2=Cc3c(C=C)c(C)c4[n]3[Fe]([Cl])[n]3c(c(C)c(CCC(=O)O)c3=CC3=NC(=C4)C(C)=C3CCC(=O)O)=CC1=N2` [haemin], the “SDS-PAGE and ECL detection of bound haemin” value in experiment [1] is listed as “haemin signal was detected in the haem binding protein rRhuA (positive control) incubated with haemin”.

Take “recombinant RhuH protein (R. anatipestifer haem uptake protein haemophore), mature, without signal peptide (natural protein)”: the stoichiometry N in experiment [2] came out at 2.
